Results from patent US11999727B2 (Tango Therapeutics, Inc., priority 2020, dated 2024).

What was measured:
[1] = biological target: T1, PRMT5 (Homo sapiens, UniProt O14744); experiment: PRMT5 biochemical IC50 assay with SAM as cofactor; conditions: PRMT5, SAM as cofactor; read-out: SAM IC50
T1 construct: purchased Viva (custom protein)

[2] = biological target: T1, PRMT5; experiment: PRMT5 biochemical IC50 assay with no cofactor; conditions: PRMT5, no cofactor; read-out: No Cofactor/ rel IC50
Description: Table 1 indicates IC50 values (μM) against PRMT5 for exemplary compounds in the presence of SAM as cofactor, with no cofactor, and with MTA as cofactor, respectively (columns 4-6). […] Ki values can be calculated from the IC50 values as described in the Examples section. As detailed in the Examples section, for the assay performed in the presence of SAM, IC50=Ki×1.5 (Ki=IC50/1.5).

[3] = biological target: T1, PRMT5; experiment: PRMT5 biochemical IC50 assay with MTA as cofactor; conditions: PRMT5, MTA as cofactor; read-out: MTA IC50
[4] = tested on: HAP1 MTAP-intact cell line; experiment: SDMA in-cell western assay, HAP1 MTAP-intact; type: cell-based; conditions: Homo sapiens, HAP1, SDMA in-cell western, HAP1 MTAP-intact; read-out: MTAP HAP1 intact IC50
Procedure, shortened: (§1)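 Compounds were tested in HAP1 cells differing only in MTAP status (endogenous expression versus null). Cellular SDMA levels were then measured by in-cell western, giving an IC50 in each background.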

[5] = tested on: HAP1 MTAP-deleted cell line; experiment: SDMA in-cell western assay, HAP1 MTAP-deleted; type: cell-based; conditions: for IC50: Homo sapiens, HAP1, SDMA in-cell western, HAP1 MTAP-deleted, read-out: HAP 1 MTAP deleted IC50; for MTAP intact/deleted ratio: IC50 ratio HAP1 MTAP-intact / HAP1 MTAP-deleted, SDMA in-cell western
Procedure, shortened: as §1

[6] = tested on: HAP1 MTAP-deleted cell line; experiment: Viability assay, MTAP-deleted cell line; type: cell-based; conditions: Homo sapiens, HAP1, viability, HAP1 MTAP-deleted cell line; read-out: HAP1 MTAP deleted viability
Description: Table 1 additionally indicates IC50 values in a viability assay for the MTAP-deleted cell line (column 10), indicating the effect of treatment with compound on cell survival.

T1 sequence (O14744 whole entry): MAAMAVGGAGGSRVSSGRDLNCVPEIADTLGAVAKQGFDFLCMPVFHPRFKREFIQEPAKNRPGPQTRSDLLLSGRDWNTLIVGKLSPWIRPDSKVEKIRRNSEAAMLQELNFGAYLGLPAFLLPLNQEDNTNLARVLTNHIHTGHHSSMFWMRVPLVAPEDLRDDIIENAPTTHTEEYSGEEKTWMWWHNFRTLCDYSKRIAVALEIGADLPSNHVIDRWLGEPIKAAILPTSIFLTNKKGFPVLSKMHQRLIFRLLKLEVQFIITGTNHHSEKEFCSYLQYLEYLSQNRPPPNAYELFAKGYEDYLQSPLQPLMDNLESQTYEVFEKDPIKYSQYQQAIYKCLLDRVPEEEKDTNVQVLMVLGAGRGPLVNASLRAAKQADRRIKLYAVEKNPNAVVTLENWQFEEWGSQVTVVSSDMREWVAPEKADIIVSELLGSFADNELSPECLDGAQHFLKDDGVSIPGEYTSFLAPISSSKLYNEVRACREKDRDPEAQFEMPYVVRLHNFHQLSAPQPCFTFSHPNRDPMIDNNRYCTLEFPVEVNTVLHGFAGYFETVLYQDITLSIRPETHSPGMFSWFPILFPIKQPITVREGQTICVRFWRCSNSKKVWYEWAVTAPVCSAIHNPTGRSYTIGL
T1 sequence (Q9BQA1 whole entry partner): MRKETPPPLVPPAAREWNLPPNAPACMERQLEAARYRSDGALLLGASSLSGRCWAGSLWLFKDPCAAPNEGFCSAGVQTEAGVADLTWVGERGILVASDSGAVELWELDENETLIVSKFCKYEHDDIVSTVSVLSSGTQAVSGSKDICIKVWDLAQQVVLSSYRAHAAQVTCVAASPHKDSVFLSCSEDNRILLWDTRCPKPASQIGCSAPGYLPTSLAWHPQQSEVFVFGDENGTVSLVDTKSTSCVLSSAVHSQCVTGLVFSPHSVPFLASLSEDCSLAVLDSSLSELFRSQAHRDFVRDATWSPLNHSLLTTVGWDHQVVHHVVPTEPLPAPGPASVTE

| IC50 [1] [nM] | IC50 [2] [nM] | IC50 [3] [nM] | IC50 [4] [nM] | IC50 [5] [nM] | Structure (SMILES) | MTAP intact/deleted ratio [5] | IC50 [6] [nM] |
| --- | --- | --- | --- | --- | --- | --- | --- |
| 50 to 500 | < 50 | < 50 | 100 to 1000 | < 100 | CCc1cc(NC(=O)C(=O)N2C[C@@H](C)CC[C@@H]2c2ccc(OCCN(C)C)cc2)cnc1N [Compound 1292, N-(6-amino-5-ethylpyridin-3-yl)-2-((2R,5S)-2-(4-(2-(dimethylamino)ethoxy)phenyl)-5-methylpiperidin-1-yl)-2-oxoacetamide] | A (an IC50 ratio greater than or equal to 10 fold) | < 1000 |
| 50 to 500 | < 50 | < 50 | 100 to 1000 | < 100 | CCc1cc(NC(=O)C(=O)N2C[C@@H](C)CC[C@@H]2c2ccc(N3CCN(C)C[C@H]3C)nc2)cnc1N [Compound 1294, N-(6-amino-5-ethyl-3-pyridyl)-2-[(2R,5S)-2-[6-[(2R)-2,4-dimethylpiperazin-1-yl]-3-pyridyl]-5-methyl-1-piperidyl]-2-oxo-acetamide] | A (an IC50 ratio greater than or equal to 10 fold) | < 1000 |
| < 50 | < 50 | < 50 | < 100 | < 100 | Cc1cc(NC(=O)C(=O)N2C[C@@H](C)CC[C@@H]2c2ccc3sc(CCN4CCCC4)nc3c2)cnc1N [Compound 1296, N-(6-amino-5-methylpyridin-3-yl)-2-((2R,5S)-5-methyl-2-(2-(2-(pyrrolidin-1-yl)ethyl)benzo[d]thiazol-5-yl)piperidin-1-yl)-2-oxoacetamide] | A (an IC50 ratio greater than or equal to 10 fold) | < 1000 |
| 50 to 500 | < 50 | < 50 | < 100 | < 100 | CCc1cc(NC(=O)C(=O)N2C[C@@H](C)CC[C@@H]2c2ccc3sc(C45CCN(CC4)C5)nc3c2)cnc1N [Compound 1298, 2-((2R,5S)-2-(2-(1-azabicyclo[2.2.1]heptan-4-yl)benzo[d]thiazol-5-yl)-5-methylpiperidin-1-yl)-N-(6-amino-5-ethylpyridin-3-yl)-2-oxoacetamide] | B (an IC50 ratio greater than or equal to 3 fold but lower than 10 fold) | < 1000 |
| 50 to 500 | < 50 | < 50 | 100 to 1000 | < 100 | Cc1ncc(NC(=O)C(=O)N2C[C@@H](C)CC[C@@H]2c2ccc3sc(C4CCN(C)CC4)nc3c2)cc1C(F)(F)F [Compound 1300, 2-((2R,5)-5-methyl-2-(2-(1-methylpiperidin-4-yl)benzo[d]thiazol-5-yl)piperidin-1-yl)-N-(6-methyl-5-(trifluoromethyl)pyridin-3-yl)-2-oxoacetamide] | A (an IC50 ratio greater than or equal to 10 fold) | < 1000 |
| < 50 | < 50 | < 50 | < 100 | < 100 | Cc1ncc(NC(=O)C(=O)N2C[C@@H](C)CC[C@@H]2c2ccc3sc(C4CCN(C)CC4)nc3c2)cc1C(F)F [Compound 1301] | A (an IC50 ratio greater than or equal to 10 fold) | < 1000 |
| 50 to 500 | < 50 | < 50 | 100 to 1000 | < 100 | CCc1cc(NC(=O)C(=O)N2C[C@@H](C)CC[C@@H]2c2ccc3sc(CN(C)C(C)C)nc3c2)cnc1N [Compound 1303, N-(6-amino-5-ethylpyridin-3-yl)-2-((2R,5S)-2-(2-((isopropyl(methyl)amino)methyl)benzo[d]thiazol-5-yl)-5-methylpiperidin-1-yl)-2-oxoacetamide] | A (an IC50 ratio greater than or equal to 10 fold) | < 1000 |
| < 50 | < 50 | < 50 | 100 to 1000 | < 100 | CCc1cc(NC(=O)C(=O)N2C[C@@H](C)CC[C@@H]2c2ccc3sc(C4CCN(CC(F)F)CC4)nc3c2)cnc1N [Compound 1304, N-(6-amino-5-ethylpyridin-3-yl)-2-((2R,5S)-2-(2-(1-(2,2-difluoroethyl)piperidin-4-yl)benzo[d]thiazol-5-yl)-5-methylpiperidin-1-yl)-2-oxoacetamide] | A (an IC50 ratio greater than or equal to 10 fold) | < 1000 |
| 50 to 500 | < 50 | < 50 | 100 to 1000 | < 100 | CCc1cc(NC(=O)C(=O)N2C[C@@H](C)CC[C@@H]2c2ccc(NC3CCN(C)CC3)nc2)cnc1N [Compound 1306, N-(6-Amino-5-ethyl-3-pyridyl)-2-[(2R,5S)-5-methyl-2-[6-[(1-methyl-4-piperidyl)amino]-3-pyridyl]-1-piperidyl]-2-oxo-acetamide] | A (an IC50 ratio greater than or equal to 10 fold) | < 1000 |
| < 50 | < 50 | < 50 | < 100 | < 100 | Cc1ncc(NC(=O)C(=O)N2C[C@@H](C)CC[C@@H]2c2ccc3sc(C4CCN(C)CC4)nc3c2)cc1C1COC1 [Compound 1309, 2-((2R,5S)-5-methyl-2-(2-(1-methylpiperidin-4-yl)benzo[d]thiazol-5-yl)piperidin-1-yl)-N-(6-methyl-5-(oxetan-3-yl)pyridin-3-yl)-2-oxoacetamide] | A (an IC50 ratio greater than or equal to 10 fold) | < 1000 |
| < 50 | < 50 | < 50 | 100 to 1000 | < 100 | Cc1cc(NC(=O)C(=O)N2C[C@@H](C)CC[C@@H]2c2ccc3sc(C4CC(C)(C)N(C)C(C)(C)C4)nc3c2)cnc1C [Compound 1315, N-(5,6-dimethylpyridin-3-yl)-2-((2R,5S)-5-methyl-2-(2-(1,2,2,6,6-pentamethylpiperidin-4-yl)benzo[d]thiazol-5-yl)piperidin-1-yl)-2-oxoacetamide] | A (an IC50 ratio greater than or equal to 10 fold) | < 1000 |
| 50 to 500 | < 50 | < 50 | < 100 | < 100 | COc1ncc(NC(=O)C(=O)N2C[C@@H](C)CC[C@@H]2c2ccc3sc(C[C@@H](C)N(C)C)nc3c2)cc1C(N)=O [Compound 1317, 5-(2-((2R,5S)-2-(2-((R)-2-(dimethylamino)propyl)benzo[d]thiazol-5-yl)-5-methylpiperidin-1-yl)-2-oxoacetamido)-2-methoxynicotinamide] | A (an IC50 ratio greater than or equal to 10 fold) | < 1000 |
| < 50 | < 50 | < 50 | < 100 | < 100 | CCc1cc(NC(=O)C(=O)N2C[C@@H](C)CC[C@@H]2c2ccc3nn(C4CCN(C)CC4)cc3c2)cnc1N [Compound 1321, N-(6-Amino-5-ethyl-3-pyridyl)-2-[(2R,5S)-5-methyl-2-[2-(1-methyl-4-piperidyl)indazol-5-yl]-1-piperidyl]-2-oxo-acetamide] | A (an IC50 ratio greater than or equal to 10 fold) | < 1000 |
